From ChEMBL document CHEMBL1949630, “Discovery of benzodihydroisofurans as novel, potent, bioavailable and brain-penetrant prolylcarboxypeptidase inhibitors” (Bioorg Med Chem Lett, 2012)
The source made the active and inactive calls. The rule behind the calls is not given here.

What was measured:
[1] = Half life in rat at 1 mg/kg, iv and 2 mg/kg, po by LC/MS/MS analysis; type: ADME, organism-based; conditions: in vivo
[2] = Drug uptake in established diet-induced obese C57BL/6 mouse brain at 10 mg/kg, po qd for 2 days; type: ADME, organism-based; design: dose 10 mg/kg, route oral; conditions: read-out: Drug uptake
[3] = tested on: Rattus norvegicus; assay: Dose normalized AUC in rat at 2 mg/kg by LC/MS/MS analysis; type: ADME, organism-based; design: dose 2 mg/kg; conditions: in vivo
[4] = Fraction unbound in human plasma; type: ADME, cell-free
[5] = Fraction unbound in mouse plasma; type: ADME, cell-free
[6] = Ratio of drug level in brain to plasma in p-gp-/- mouse at 3 mg/kg, po after 4 hrs; type: ADME, organism-based; design: dose 3 mg/kg, route oral; conditions: brain and plasma, read-out: BPR
[7] = tested on: Mus musculus; assay: Antiobesity activity in established diet-induced obese C57BL/6 mouse assessed as reduction of body weight at 30 mg/kg, po qd for 5 days; type: functional, organism-based; design: dose 30 mg/kg
[8] = Drug uptake in PrCP knockout mouse brain at 30 mg/kg, po qd for 5 days measured on day 6; type: ADME, organism-based; design: dose 30 mg/kg, route oral; conditions: read-out: Drug uptake
[9] = Drug uptake in established diet-induced obese C57BL/6 mouse blood at 30 mg/kg, po qd for 2 days; type: ADME, organism-based; design: dose 30 mg/kg, route oral; conditions: read-out: Drug uptake
[10] = target: T1, Lysosomal Pro-X carboxypeptidase (Mus musculus) (UniProt Q7TMR0); assay: Inhibition of mouse PrCP in 30 mg/kg, po administered qd for 2 days established diet-induced obese C57BL/6 mouse heat inactivated plasma; type: organism-based; design: dose 30 mg/kg; conditions: at 30 mg/kg
T1 sequence (whole entry): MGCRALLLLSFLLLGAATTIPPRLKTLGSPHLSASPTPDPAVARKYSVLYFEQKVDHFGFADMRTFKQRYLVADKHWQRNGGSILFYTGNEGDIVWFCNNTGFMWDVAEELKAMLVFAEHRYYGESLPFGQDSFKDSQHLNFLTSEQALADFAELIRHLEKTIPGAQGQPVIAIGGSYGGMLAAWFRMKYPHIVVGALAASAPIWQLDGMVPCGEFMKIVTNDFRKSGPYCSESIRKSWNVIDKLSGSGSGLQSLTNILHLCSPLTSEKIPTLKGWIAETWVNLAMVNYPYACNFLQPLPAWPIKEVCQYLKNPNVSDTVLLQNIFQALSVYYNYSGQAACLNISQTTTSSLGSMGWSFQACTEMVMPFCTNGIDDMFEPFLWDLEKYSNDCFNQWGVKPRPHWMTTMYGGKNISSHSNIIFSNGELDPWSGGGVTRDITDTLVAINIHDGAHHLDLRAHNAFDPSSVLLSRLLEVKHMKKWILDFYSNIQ

[11] = Plasma concentration in established diet-induced obese wild type C57BL/6 mouse at 30 mg/kg, po qd for 5 days measured on day 6; type: ADME, organism-based; design: dose 30 mg/kg, route oral
[12] = Ratio of drug level in brain to plasma in wild type CF1 mouse at 3 mg/kg, po after 4 hrs; type: ADME, organism-based; design: dose 3 mg/kg, route oral; conditions: brain and plasma, read-out: BPR
[13] = target: T2, Lysosomal Pro-X carboxypeptidase (Mus musculus, UniProt Q7TMR0); assay: Inhibition of mouse PrCP
T2 sequence (Q7TMR0 whole entry): T1 sequence (whole entry)

[14] = Volume of distribution at steady state in C57BL/6 mouse at 1 mg/kg, iv and 2 mg/kg, po by LC/MS/MS analysis; type: ADME, organism-based; conditions: in vivo, read-out: Vdss
[15] = Volume of distribution at steady state in rat at 1 mg/kg, iv and 2 mg/kg, po by LC/MS/MS analysis; type: ADME, organism-based; conditions: in vivo, read-out: Vdss
[16] = Clearance in C57BL/6 mouse at 1 mg/kg, iv and 2 mg/kg, po by LC/MS/MS analysis; type: ADME, organism-based; conditions: in vivo
[17] = Clearance in dog at 1 mg/kg, iv and 2 mg/kg, po by LC/MS/MS analysis; type: ADME, organism-based, Canis lupus familiaris; conditions: in vivo
[18] = Drug uptake in established diet-induced obese C57BL/6 mouse brain at 3 mg/kg, po qd for 2 days; type: ADME, organism-based; design: dose 3 mg/kg, route oral; conditions: read-out: Drug uptake
[19] = tested on: Mus musculus; assay: Dose normalized AUC in C57BL/6 mouse at 2 mg/kg by LC/MS/MS analysis; type: ADME, organism-based; design: dose 2 mg/kg; conditions: in vivo
[20] = Drug uptake in established diet-induced obese wild type C57BL/6 mouse brain at 30 mg/kg, po qd for 5 days measured on day 6; type: ADME, organism-based; design: dose 30 mg/kg, route oral; conditions: read-out: Drug uptake
[21] = Drug uptake in established diet-induced obese C57BL/6 mouse blood at 10 mg/kg, po qd for 2 days; type: ADME, organism-based; design: dose 10 mg/kg, route oral; conditions: read-out: Drug uptake
[22] = target: T1, Lysosomal Pro-X carboxypeptidase (Mus musculus); assay: Inhibition of mouse PrCP in 30 mg/kg, po qd for 5 days established diet-induced obese wild type C57BL/6 mouse heat inactivated brain homogenates measured on day 6; type: organism-based; design: dose 30 mg/kg; conditions: at 30 mg/kg
[23] = tested on: Canis familiaris; assay: Dose normalized AUC in dog at 2 mg/kg by LC/MS/MS analysis; type: ADME, organism-based, Canis lupus familiaris; design: dose 2 mg/kg; conditions: in vivo
[24] = target: T1, Lysosomal Pro-X carboxypeptidase (Mus musculus); assay: Inhibition of mouse PrCP in 3 mg/kg, po administered qd for 2 days established diet-induced obese C57BL/6 mouse heat inactivated plasma; type: organism-based; design: dose 3 mg/kg; conditions: at 3 mg/kg
[25] = Clearance in rat at 1 mg/kg, iv and 2 mg/kg, po by LC/MS/MS analysis; type: ADME, organism-based; conditions: in vivo
[26] = target: T1, Lysosomal Pro-X carboxypeptidase (Mus musculus); assay: Inhibition of mouse PrCP in 30 mg/kg, po qd for 5 days established diet-induced obese wild type C57BL/6 mouse heat inactivated plasma measured on day 6; type: organism-based; design: dose 30 mg/kg; conditions: at 30 mg/kg
[27] = Volume of distribution at steady state in dog at 1 mg/kg, iv and 2 mg/kg, po by LC/MS/MS analysis; type: ADME, organism-based, Canis lupus familiaris; conditions: in vivo, read-out: Vdss
[28] = Plasma concentration in established diet-induced obese C57BL/6 mouse at 10 mg/kg, po qd for 2 days; type: ADME, organism-based; design: dose 10 mg/kg, route oral
[29] = Oral bioavailability in rat at 2 mg/kg by LC/MS/MS analysis; type: ADME, organism-based; conditions: in vivo
[30] = Half life in C57BL/6 mouse at 1 mg/kg, iv and 2 mg/kg, po by LC/MS/MS analysis; type: ADME, organism-based; conditions: in vivo
[31] = Oral bioavailability in C57BL/6 mouse at 2 mg/kg by LC/MS/MS analysis; type: ADME, organism-based; conditions: in vivo
[32] = Drug uptake in established diet-induced obese C57BL/6 mouse blood at 3 mg/kg, po qd for 2 days; type: ADME, organism-based; design: dose 3 mg/kg, route oral; conditions: read-out: Drug uptake
[33] = Plasma concentration in PrCP knockout mouse at 30 mg/kg, po qd for 5 days measured on day 6; type: ADME, organism-based; design: dose 30 mg/kg, route oral
[34] = Oral bioavailability in dog at 2 mg/kg by LC/MS/MS analysis; type: ADME, organism-based, Canis lupus familiaris; conditions: in vivo
[35] = tested on: Mus musculus; assay: Antiobesity activity in PrCP knockout mouse assessed as reduction of body weight at 30 mg/kg, po qd for 5 days; type: functional, organism-based; design: dose 30 mg/kg
[36] = Half life in dog at 1 mg/kg, iv and 2 mg/kg, po by LC/MS/MS analysis; type: ADME, organism-based, Canis lupus familiaris; conditions: in vivo
[37] = Drug uptake in established diet-induced obese C57BL/6 mouse brain at 30 mg/kg, po qd for 2 days; type: ADME, organism-based; design: dose 30 mg/kg, route oral; conditions: read-out: Drug uptake
[38] = Plasma concentration in established diet-induced obese C57BL/6 mouse at 30 mg/kg, po qd for 2 days; type: ADME, organism-based; design: dose 30 mg/kg, route oral
[39] = Plasma concentration in established diet-induced obese C57BL/6 mouse at 3 mg/kg, po qd for 2 days; type: ADME, organism-based; design: dose 3 mg/kg, route oral
[40] = target: T2, Lysosomal Pro-X carboxypeptidase; assay: Inhibition of PrCP in mouse plasma assessed as angiotensin 3 cleavage by whole serum shift assay
[41] = target: T1, Lysosomal Pro-X carboxypeptidase (Mus musculus); assay: Inhibition of mouse PrCP in 10 mg/kg, po administered qd for 2 days established diet-induced obese C57BL/6 mouse heat inactivated plasma; type: organism-based; design: dose 10 mg/kg; conditions: at 10 mg/kg
[42] = target: T1, Lysosomal Pro-X carboxypeptidase (Mus musculus); assay: Inhibition of mouse PrCP in qd for 2 days po dosed established diet-induced obese C57BL/6 mouse heat inactivated plasma; type: organism-based

## FC(F)(F)Oc1ccc(CN2CCC3(CC2)OC(c2cc(Cl)ccn2)c2ccccc23)cc1 (configuration not stated)
[1]
  half-life: 8.9 h
[2]
  concentration at 48 h: 110 nM
[3]
  AUC/dose: 1.8 µM·kg·h/mg
[4]
  fraction unbound: < 0.0006
[5]
  fraction unbound: < 0.0006
[6]
  Kp at 4 h: 1.9
[7]
  Activity: inactive
[8]
  concentration at 120 h: 820 nM
[9]
  concentration at 48 h: 590 nM
[10]
  inhibition: 93%
[11]
  concentration at 120 h: 1420 nM
[12]
  Kp at 4 h: 0.94
[13]
  IC50: 0.18 nM
[14]
  Vd: 20 L/kg
[15]
  Vd: 5.9 L/kg
[16]
  clearance: 45 mL/min/kg
[17]
  clearance: 5.9 mL/min/kg
[18]
  concentration at 48 h: 30 nM
[19]
  AUC/dose: 0.28 µM·kg·h/mg
[20]
  concentration at 120 h: 690 nM
[21]
  concentration at 48 h: 280 nM
[22]
  inhibition: 61%
[23]
  AUC/dose: 5 µM·kg·h/mg
[24]
  inhibition: 53%
[25]
  clearance: 11 mL/min/kg
[26]
  inhibition: 88%
[27]
  Vd: 5.5 L/kg
[28]
  concentration at 48 h: 240 nM
[29]
  bioavailability: 60%
[30]
  half-life: 6.7 h
[31]
  bioavailability: 35%
[32]
  concentration at 48 h: 80 nM
[33]
  concentration at 120 h: 1570 nM
[34]
  bioavailability: 88%
[35]
  Activity: inactive
[36]
  half-life: 14 h
[37]
  concentration at 48 h: 520 nM
[38]
  concentration at 48 h: 520 nM
[39]
  concentration at 48 h: 50 nM
[40]
  IC50: 23 nM
[41]
  inhibition: 82%
[42]
  inhibition: Dose-dependent effect
